From US11298367B2, “Prodrugs of substituted triazole derivatives and uses thereof” (Bayer Aktiengesellschaft, priority 2017, dated 2022) come the findings set out here.

Data set [1] addresses T1, human V1a receptor (Homo sapiens, UniProt P37288).
T1 construct: expressed in transfected cells; host or cells: CHO K1 (Chinese hamster ovary), also stably transfected with a modified aequorin
Nature of the data set: Cellular in vitro assay for verification of prodrug conversion into drug (with/without alkaline phosphatase). It is filed as cell-based. The note with it: human V1a CHO cells. Here is the method: B-4. Cellular In Vitro Assay for Verification of Prodrug Conversion into Drug
To verify the conversion of prodrugs into the respective drugs, the prodrugs are incubated with and without alkaline phosphatase. Cleavage of the phosphate moiety by alkaline phosphatase converts the prodrug into the underlying respective drug [Coleman J. E., Annu. Rev. Biophys. Biomol. Struct. 1992, 21, 441-483]. As prodrug and underlying respective drug show different IC50 values, the value of the prodrug after alkaline phosphatase treatment resembles the IC50 of the respective drug. The determination of IC50 values of compounds of the invention at the human V1a receptor is carried out using a recombinant cell line. The cell line originally derives from a hamster's ovary epithelial cell (Chinese Hamster Ovary, CHO K1, ATCC: American Type Culture Collection, Manassas, Va. 20108, USA). The test cell line constitutively expresses the human V1a receptor. Cells are also stably transfected with a modified form of the calcium-sensitive photoprotein aequorin which, after reconstitution with the cofactor coelenterazine, emits light upon increase in free calcium concentration [Rizzuto R, Simpson A W, Brini M, Pozzan T, Nature 358, 325-327 (1992); Illarionov B A, Bondar V S, Illarionova V A, Vysotski E S, Gene 153 (2), 273-274 (1995)]. The resulting vasopressin receptor cell reacts to stimulation of the recombinantly expressed V1a receptor by intracellular release of calcium ions, which can be quantified by the resulting luminescence of photoprotein. The bioluminescence of the cell line is detected using a suitable luminometer [Milligan G, Marshall F, Rees S, Trends in Pharmacological Sciences 17, 235-237 (1996)].
On the day before the assay, the cells are seeded in culture medium (DMEM/F12, 2% FCS, 2 mM glutamine, 10 mM HEPES, 5 μg/ml coelenterazine) in 384-well microtiter plates and kept in a cell incubator (96% humidity, 5% v/v CO2, 37C). On the day of the assay, 100 μl of test compounds at a concentration of 100 μM are incubated for 15 minutes with 500 units alkaline phosphatase at 37° C. in tyrode buffer (20 mM HEPES, 130 mM NaCl, 5 mM KCl, 5 mM NaHCO3, 2 mM MgCl2, pH 7,4). After incubation compounds are immediately diluted and placed for 10 minutes at 37° C. on the before seeded V1a cells. For detection of antagonistic activity of the compounds [Arg^8]-vasopressin at EC50 concentration is added and the resulting light signal is measured immediately in a luminometer.

The nature of data set [2]: Solubility. It is filed as physicochemical. The conditions noted are these: 24 h room temperature, max. 500 μg/ml; for solubility at 24 h: thermodynamic from solid. Here is the method: For each substance 0.5-0.6 mg are weighed exactly. In each case, sufficient medium is added to the sample in such a way that a concentration of c=500 μg/ml is obtained. This sample solution is shaken for 24 h at room temperature and 1400 rpm.
A further sample weight of 0.5-0.6 mg is required for the DMSO calibration solution. This sample is filled with DMSO to a concentration of c=600 μg/ml. Two calibration solutions are prepared from this stock solution. In a 2 ml HPLC vial, 1000 μl of DMSO are initially introduced and 34.4 μl of the stock solution are pipetted (c=20 µg/ml). […] of this solution (c=20 μg/ml) are placed in a further 2 ml HPLC vial containing 500 μl of DMSO (c=2.5 μg/ml).
After shaking the test solutions, 230 μl of the supernatant are transferred into a centrifuge tube and centrifuged at 42 000 rpm (223 000 g) for 30 min. 180 μl of the supernatant are then taken and each diluted with DMSO (1:5 sample 1; 1:100 sample 2), and transferred to HPLC vials. The two calibration solutions and the dilute sample solutions are analyzed by HPLC. Quantification is performed over the corresponding peak areas.
Distilled water; trifluoroacetic acid (Merck; 1.08262.0100); acetonitrile (HPLC grade); DMSO (Merck; 8.02912.2500).
Fluka buffer, Order No. 33643 (11.76 g citric acid, 2.57 g sodium chloride and 2.72 g sodium hydroxide).
Fluka buffer, Order No. 33646 (3.52 g potassium dihydrogenphosphate, 7.26 g sodium hydrogen phosphate).
Solution of 6.18 g sodium chloride and 3.96 g sodium dihydrogen phosphate in 1 L distilled water, adjust with 1M aqueous sodium hydroxide solution to pH 7.4.
0.6057 g TRIS was dissolved in 95 ml water, adjust to pH 8.5 with aqueous hydrochloric acid, fill with water until 100 ml volume is reached.

The target of data set [3] is T1, human V1a receptor. As to the kind of experiment: Cellular in vitro assay for vasopressin receptor activity (V1a, aequorin luminescence). The note with it: for ratio IC50 hV2/hV1a: selectivity ratio hV2/hV1a; for IC50: CHO cell line with human V1a receptor, [Arg8]-vasopressin at EC50, values are for the prodrug as such, read-out: IC50 hV1a. It is filed as cell-based. On the procedure: (§1) B-1. Cellular In Vitro Assay for Determining Vasopressin Receptor Activity
(§2) The identification of agonists and antagonists of the V1a and V2 vasopressin receptors from humans, rats and dogs as well as the quantification of the activity of the compounds of the invention is carried out using recombinant cell lines. These cell lines originally derive from a hamster's ovary epithelial cell (Chinese Hamster Ovary, CHO K1, ATCC: American Type Culture Collection, Manassas, Va. 20108, USA). The test cell lines constitutively express the human, rat or dog V1a or V2 receptors. In case of the Gaq-coupled V1a receptors, cells are also stably transfected with a modified form of the calcium-sensitive photoproteins aequorin (human and rat V1a) or obelin (dog V1a), which, after reconstitution with the cofactor coelenterazine, emit light when there are increases in free calcium concentrations [Rizzuto R, Simpson A W, Brini M, Pozzan T, Nature 358, 325-327 (1992); Illarionov B A, Bondar V S, Illarionova V A, Vysotski E S, Gene 153 (2), 273-274 (1995)]. The resulting vasopressin receptor cells react to stimulation of the recombinantly expressed Via receptors by intracellular release of calcium ions, which can be quantified by the resulting photoprotein luminescence. The Gs-coupled V2 receptors are stably transfected into cell lines expressing the gene for firefly luciferase under control of a CRE-responsible promoter. Activation of V2 receptors induces the activation of the CRE-responsive promoter via cAMP increase, thereby inducing the expression of firefly luciferase. The light emitted by photoproteins of V1a cell lines as well as the light emitted by firefly luciferase of V2 cell lines corresponds to the activation or inhibition of the respective vasopressin receptor. The bioluminescence of the cell lines is detected using a suitable luminometer [Milligan G, Marshall F, Rees S, Trends in Pharmacological Sciences 17, 235-237 (1996)].
Vasopressin V1a Receptor Cell Lines:
On the day before the assay, the cells are plated out in culture medium (DMEM/F12, 2% FCS, 2 mM glutamine, 10 mM HEPES, 5 μg/ml coelenterazine) in 384-well microtiter plates and kept in a cell incubator (96% humidity, 5% v/v CO2, 37C). On the day of the assay, test compounds in various concentrations are placed for 10 minutes in the wells of the microtiter plate before the agonist [Arg^8]-vasopressin at EC50 concentration is added. The resulting light signal is measured immediately in a luminometer.
(§3) Table 1A below lists individual IC50 values for the compounds of the invention (including racemic mixtures as well as separated enantiomers) that were obtained from cell lines transfected with the human V1a or V2 receptor. This means these IC50 values are the values for the prodrug and not for the underlying respective drug as the prodrug is mainly stable under the assay conditions.

The target in data set [4] is T2, human V2 receptor (Homo sapiens, UniProt P30518).
T2 construct: expressed in transfected cells; host or cells: CHO K1 cells expressing firefly luciferase under a CRE-responsive promoter
As to the kind of experiment: Cellular in vitro assay for vasopressin receptor activity (V2, CRE-luciferase). Type of data set: cell-based. The note with it: CHO cell line with human V2 receptor, [Arg8]-vasopressin at EC50; values are for the prodrug as such; read-out: IC50 hV2. Here is the method:
as §1, §2
Vasopressin V2 Receptor Cell Lines:
On the day before the assay, the cells are plated out in culture medium (DMEM/F12, 2% FCS, 2 mM glutamine, 10 mM HEPES) in 384-well microtiter plates and kept in a cell incubator (96% humidity, 5% v/v CO2, 37C). On the day of the assay, test compounds in various concentrations and the agonist [Arg^8]-vasopressin at EC50 concentration are added together to the wells, and plates are incubated for 3 hours in a cell incubator. Upon addition of the cell lysis reagent Triton™ and the substrate luciferin, luminescence of firefly luciferase is measured in a luminometer.
as §3

Setting [5] is: pre-incubation 15 min with 500 units alkaline phosphatase at 37° C., read-out: IC50 with AP.
Where [6] appears, read: without alkaline phosphatase, read-out: IC50 without AP.
[7] abbreviates: Tris buffer pH 8.5, pH 8.5, aqueous buffer, pH = 8.5 Tris buffer.
[8] abbreviates: citrate buffer pH 4, pH 4, aqueous buffer, pH = 4 citrate buffer.
The mark [9] stands for this setting: PBS buffer pH 7.4, pH 7.4, aqueous buffer, pH = 7.4 PBS buffer.

Converted amounts (≈) assume the structure as drawn.

T1 sequence (P37288 whole entry): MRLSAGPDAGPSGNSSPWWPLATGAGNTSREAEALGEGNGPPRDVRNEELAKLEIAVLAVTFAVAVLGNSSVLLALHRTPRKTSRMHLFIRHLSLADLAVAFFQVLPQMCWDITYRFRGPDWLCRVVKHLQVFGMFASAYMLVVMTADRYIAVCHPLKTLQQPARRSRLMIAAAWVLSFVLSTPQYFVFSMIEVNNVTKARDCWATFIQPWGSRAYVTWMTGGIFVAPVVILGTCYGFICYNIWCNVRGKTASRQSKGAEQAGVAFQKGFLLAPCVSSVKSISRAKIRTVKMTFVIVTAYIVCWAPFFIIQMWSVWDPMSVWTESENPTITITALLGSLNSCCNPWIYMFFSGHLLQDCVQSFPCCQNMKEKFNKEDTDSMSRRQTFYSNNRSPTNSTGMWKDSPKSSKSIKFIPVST
T2 sequence (P30518 whole entry): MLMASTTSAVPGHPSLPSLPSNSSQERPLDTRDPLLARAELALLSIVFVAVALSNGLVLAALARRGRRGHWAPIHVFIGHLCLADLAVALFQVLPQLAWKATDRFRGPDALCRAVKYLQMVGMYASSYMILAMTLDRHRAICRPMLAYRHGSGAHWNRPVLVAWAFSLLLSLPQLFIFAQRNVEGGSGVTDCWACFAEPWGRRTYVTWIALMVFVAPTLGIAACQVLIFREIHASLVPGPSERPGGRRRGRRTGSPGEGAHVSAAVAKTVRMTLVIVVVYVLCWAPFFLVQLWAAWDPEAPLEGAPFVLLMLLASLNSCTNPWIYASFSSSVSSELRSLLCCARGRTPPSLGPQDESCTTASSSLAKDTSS

As for `NC(=O)c1nc(Cn2nc(-c3ccc(Cl)cc3)n(C[C@H](O)C(F)(F)F)c2=O)nn1-c1ccccc1C(F)(F)F` [Example 6A, 3-({3-(4-Chlorophenyl)-5-oxo-4-[(2S)-3,3,3-trifluoro-2-hydroxypropyl]-4,5-dihydro-1H-1,2,4-triazol-1-yl}methyl)-1-[2-(trifluoromethyl)phenyl]-1H-1,2,4-triazole-5-carboxamide], the IC50 in data set [1] (setting [5]) and in data set [1] (setting [6]) was 1.35 nM each time. The compound also registered a solubility at 24 h in data set [2] (setting [7]) of 4.3 µg/mL (≈ 7.47 µM). The Solubility result in data set [2] (pH = 4 citrate buffer) and in data set [2] (pH = 7.0 buffer) was “not detectable” in each case. For the same compound, the “ratio IC50 hV2/hV1a” value in data set [3] is listed as 41.4.
As for `NC(=O)c1nc(Cn2nc(-c3ccc(Cl)cc3)n(C[C@H](O)C(F)(F)F)c2=O)nn1-c1ncccc1Cl` [Example 8A, 3-({3-(4-Chlorophenyl)-5-oxo-4-[(2S)-3,3,3-trifluoro-2-hydroxypropyl]-4,5-dihydro-1H-1,2,4-triazol-1-yl}methyl)-1-(3-chloropyridin-2-yl)-1H-1,2,4-triazole-5-carboxamide], the figures for the IC50 in data set [1] (setting [5]) and in data set [1] (setting [6]) were 1.1 nM and 1.7 nM, respectively. Moreover, the solubility at 24 h in data set [2] (setting [7]) was found to be 4 µg/mL (≈ 7.36 µM); in data set [2] (setting [8]), 5.9 µg/mL (≈ 10.9 µM); in data set [2] (phosphate buffer pH 7, pH 7, aqueous buffer, pH = 7.0 buffer), 2.8 µg/mL (≈ 5.15 µM). Besides, in data set [3], the “ratio IC50 hV2/hV1a” value is reported as 38.2.
`NC(=O)c1nc(Cn2nc(-c3ccc(Cl)cc3)n(C[C@H](OP(=O)([O-])O)C(F)(F)F)c2=O)nn1-c1ncccc1Cl.[Na+]` [Example 20, Sodium (2S)-3-[1-{[5-carbamoyl-1-(3-chloropyridin-2-yl)-1H-1,2,4-triazol-3-yl]methyl}-3-(4-chlorophenyl)-5-oxo-1,5-dihydro-4H-1,2,4-triazol-4-yl]-1,1,1-trifluoropropan-2-yl Hydrogen Phosphate]: the figures for the IC50 in data set [4] and in data set [3] were 85.5 nM and 39.5 nM, respectively. For the same compound, the solubility at 24 h in data set [2] (setting [9]), in data set [2] (setting [7]) and in data set [2] (setting [8]) was over 500 µg/mL each time. Moreover, in data set [3] (Phosphate), the “ratio IC50 hV2/hV1a” value came out at 2.2.
For `NC(=O)c1nc(Cn2nc(-c3ccc(Cl)cc3)n(C[C@H](OP(=O)([O-])[O-])C(F)(F)F)c2=O)nn1-c1ncccc1Cl.[Mg+2]` [Example 22, Magnesium (2S)-3-[1-{[5-carbamoyl-1-(3-chloropyridin-2-yl)-1H-1,2,4-triazol-3-yl]methyl}-3-(4-chlorophenyl)-5-oxo-1,5-dihydro-4H-1,2,4-triazol-4-yl]-1,1,1-trifluoropropan-2-yl Phosphate], the IC50 in data set [4] was determined as 90 nM; in data set [3], 45 nM. The solubility at 24 h in data set [2] (setting [9]), in data set [2] (setting [7]) and in data set [2] (setting [8]) was over 500 µg/mL throughout. The “ratio IC50 hV2/hV1a” value in data set [3] is given as 2.0.

By IC50 is commonly meant the midpoint of a concentration-inhibition curve. For orientation: solubility means how much of the substance goes into solution per volume. Read a low solubility as a poorly soluble substance.
